# Laboratory results as given in patent US20210212934A1, “METHODS FOR PROVIDING LONG-LASTING ANESTHETIC EFFECT USING MICROPARTICLES” (priority 2007, published 2021).
# Test: In vitro lidocaine release from microparticles (dialysis tube, water, 37° C., UV 214 nm)
# Assay type: physicochemical
# Experimental: Microparticle batches in an amount of 100 mg were placed in a dialysis tube (high retention seamless cellulose tubing; 23 mm×15 mm. MW cut-off 05173; Sigma Aldrich). The tube was then placed in a 30 ml glass vial containing 10 ml of deionized ultra-filtered water (Fisher Scientific). Vials were placed in a reciprocating shaking bath (Reciprocating Shaking Bath Model 50; Precision Scientific) with the temperature adjusted to 37° C., and shaking speed of 100 rpm. […] The entire 10 ml of dissolution medium was replaced with fresh medium at each sampling time interval. Dilution of 0.1 ml of the withdrawn sample was diluted to 10 ml of water in clean culture tubes of borosilicate glass (Pyrex). […] Two samples per microparticle batch were measured for drug release and triplicate samples were prepared for each release interval for UV-absorbance.
smiles,measurement,setting,value
"CCN(CC)CC(=O)Nc1c(C)cccc1C [lidocaine free base, lidocaine]",time of peak of release,"in vitro release profile, single peak",about one
same,time at which release falls below minimum required level (5.6%),"in vitro release, point 10",2.5 days
same,"time at which drug is ""exhausted""","in vitro release, time point 11",3 days
same,peak of lidocaine release,"in vitro, % released at peak at about one day",18%
